Results from US9937250B2, “Immunogenic tumor associated stromal cell antigen peptides and methods of their use” (University of Pittsburgh—Of the Commonwealth System of …, priority 2011, dated 2018).

Key:
MC38 colon carcinoma = test: MC38 protection (prophylactic vaccination) model; type: in vivo, HHD mice
From the text: FIGS. 9A-9B show a series of graphs illustrating induction of specific/protective CD8^+ T cells reactive against TASA as a consequence of DC/peptide-based vaccination. In FIG. 9A, HHD mice (five animals/cohort) were vaccinated twice (d-14, d-7) subcutaneously with PBS or with isologous DC.IL12 pulsed with PBS or synthetic peptides (Table 6) derived from the indicated TASA. In cases where more than 1 peptide was identified for a given target antigen, an equimolar pool of the indicated peptides (each 10 μM) was pulsed onto DC.IL12 and used for vaccination in the relevant cohort. One week after the second immunization, spleens were harvested and splenic CD8^+ T cells isolated using MACS-beads (Miltenyi). T cells were stimulated in vitro for 48 h using the HLA-A2^+ T2 cell line pulsed with relevant TASA vs. irrelevant HIV-nef190-198 ([…]; ref. 24) peptides. Cell-free supernatants were then recovered and IFN-γ levels by ELISA. Data are reported as mean+/−SD for triplicate ELISA determinations, and are representative of 3 independent experiments performed. *p<0.05 vs. HIV-nef control peptide responses. In FIG. 9B, HHD mice were vaccinated twice (days −14 and −7; right flank) subcutaneously with PBS or with isologous DC.IL12 pulsed with PBS or synthetic TASA peptides as indicated in FIG. 1A. In cases where more than 1 peptide is identified for a given target antigen, an equimolar pool of the indicated peptides (each 10 μM) was pulsed onto DC.IL12 and used for vaccination in the relevant cohort. One week after the booster vaccine (i.e. day zero), animals were challenged subcutaneously on their left flank with 2×10^6 MC38 colon carcinoma cells. Tumor growth was then monitored every 3-4 days through day 24. All data represent mean tumor area (in mm^2)+/−SD determined from 5 mice/cohort, and are representative of three independent experiments performed. *p<0.05 versus DC only on the indicated days.
Vaccine Experiments. For prophylactic experiments, HHD mice were immunized subcutaneously on the right flank with 100 μl PBS or PBS containing 10^6 syngenic DC.IL12 cells that had been untreated or pre-pulsed for 4 h at 37° C. with 10 μM synthetic peptide(s). Immunizations occurred on days −14 and −7, with mice subsequently receiving injections of MC38 (2×10^6) tumor cells in the left flank on d0. In all cases, treatment groups contained 5 mice per cohort. For analysis of tumor cellular composition in repeat experiments, MC38 tumors were isolated by surgical resection 10 days after tumor inoculation and prepared for fluorescence imaging, as described below. […] Mice were then untreated or treated with control, syngenic DC.IL12 or DC.IL12 (10^6 cells injected subcutaneously in the left flank on days 7 and 14) pulsed with synthetic TBVA peptides. In some assays, as indicated, in vivo antibody depletions (on days 6, 13 and 20 post-tumor inoculation to assess early involvement or on days 60 and 67 or 180 and 187 to assess late involvement) of protective CD4^+ T cells or CD8^+ T cells were performed and monitored as previously described (Zhao et al., Mol Ther., 19:805-814, 2011). In all cases, tumor size (area) was monitored every 3-4 days and is reported as mean+/−SD in mm^2.
The DLK1, EphA2, HBB, NG2, NRP1, NRP2, PDGFRβ, PSMA, RGS5, TEM1, VEGFR1 and VEGFR2 antigens were expressed in situ by blood vessel cells in the MC38 colon carcinoma TME (FIG. 14). Protection of HHD mice against a challenge with HLA-A2^neg MC38 tumor cells injected subcutaneously on day zero was assayed with immunization with TBVA-derived peptides on days −14 and −7. […]

[1] = tested on: MC38 tumor microenvironment; test: Fluorescence imaging of MC38 tumor sections after prophylactic vaccination; type: in vivo, HHD mice; settings: day 14 tumors; p<0.05 vs. untreated or DC.IL12/no peptide
From the text: Day 14 MC38 tumors were harvested from HHD mice that had been vaccinated as outlined in FIG. 9B with the indicated peptides (or control PBS or DC.IL12 alone=No peptide). In FIG. 10A, six-micron tissue sections were co-stained with anti-CD8 (green) and anti-NG2 (red) antibodies and imaged by fluorescence microscopy. Blue signal=nuclear counterstain using 4′,6-diamidino-2-phenylindole (DAPI). FIG. 10B provides a summary of the mean+/−SD number of CD8^+ cells per high-power field (HPF) in MC38 tumors isolated from control or vaccinated mice as depicted in FIG. 10A. In FIG. 10C, tissue sections were co-stained with anti-CD31 (green) and anti-NG2 (red) antibodies and imaged by fluorescence microscopy. Blue signal=nuclear counterstain using DAPI. In FIG. 10D, the mean+/−SD number of CD31^+ vessels per HPF of MC38 tumors in control or vaccinated mice are summarized Representative data is depicted from 1 of 3 independent experiments performed. *p<0.05 versus DC only or untreated control mice.
Fluorescence Imaging of Tumor Sections. Tumor tissue samples were prepared and 6 micron sections prepared as previously reported (Komita et al., Cancer Res., 68:8076-8084, 2008). The following Abs were used: (for T cell analyses), rabbit anti-mouse NG2 (Millipore, Bedford, Mass.) and alexa488-conjugated anti-CD4 or -CD8β antibodies or matching isotype controls (all from BD-Biosciences); (for vascular analyses), rat anti-mouse CD31 (BD-Biosciences) and rabbit anti-mouse NG2 (Millipore) Abs; (for TBVA), rat anti-mouse CD31 (BD-Biosciences) and guinea pig anti-mouse NG2 Abs, along with anti-TBVA as described in Example 1. Imaging was performed using an Olympus Fluoview 500 Confocal microscope (Olympus America, Center Valley, Pa.).
Protective vaccines incorporating TBVA peptides promote enhanced infiltration of the TME by CD8^+ T cells in association with an inhibition of tumor vascularity. MC38 tumor lesions from all cohorts of animals with evidence of disease on day 14 (post-tumor inoculation) were isolated and immunofluorescence microscopy on tumor sections was performed. […] In marked contrast, CD4^+ T cell infiltration in the TME was sparse and the data were indistinguishable when comparing control vs. vaccinated mice (FIG. 17). […] Correlative analyses indicated an association between the anti-tumor efficacy of vaccines and their ability to promote CD8^+ T cell infiltration and reduced vascularity in the TME (FIG. 16).

For “VEGFR2: VEGFR2-derived peptide 773-781 pulsed onto DC or DC.IL12 (VIAMFFWLL; listed as Homo sapiens)”, the “Anti-tumor efficacy in MC38 protection model” value (MC38 colon carcinoma; DC.IL12 pulsed with a pool of 1 or more peptides derived from the indicated TBVA, vaccination d-14, d-7) was “+/- (+/-, p < 0.05 versus DC only for 2 consecutive time points)”, the “Protection against HLA-A2neg MC38 tumor challenge” value (MC38 colon carcinoma; immunization days -14 and -7, tumor challenge day 0 (FIG. 9B)) was “minimal protection” and the “Suppression in CD31+ vessel counts in the MC38 TME” value [1] was “somewhat less pronounced effects”.
